According to PubChem BioAssay (NCI):
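Test compounds were applied to cells in 96-well plates for 48 hours at 5 doses. GI50 is the concentration that inhibits growth by half. Definition used: TGI = concentration required for complete inhibition of growth.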

What was measured:
Assay in all cases: inhibition of tumour cell growth, NCI panel, 48 h
HOP-62 NSCLC = test system: HOP-62 NSCLC
HOP-92 NSCLC = test system: HOP-92 NSCLC
SR leukemia = test system: SR leukemia
A549 NSCLC = test system: A549 NSCLC
UACC-257 melanoma = test system: UACC-257 melanoma
LOX IMVI melanoma = test system: LOX IMVI melanoma
MDA-MB-435 = test system: MDA-MB-435

SMILES	GI50 (HOP-62 NSCLC) [µM]	TGI (HOP-62 NSCLC) [µM]	GI50 (HOP-92 NSCLC) [µM]	TGI (HOP-92 NSCLC) [µM]	GI50 (SR leukemia) [µM]	TGI (SR leukemia) [µM]	GI50 (A549 NSCLC) [µM]	TGI (A549 NSCLC) [µM]	GI50 (UACC-257 melanoma) [µM]	TGI (UACC-257 melanoma) [µM]	GI50 (LOX IMVI melanoma) [µM]	TGI (LOX IMVI melanoma) [µM]	GI50 (MDA-MB-435) [µM]	TGI (MDA-MB-435) [µM]
C=C/C(C)=C/C[C@]1(C)[C@H](C)[C@@H](OC(=O)CCC)[C@H](O)[C@@]23C(=C[C@H](OC)C[C@@H]12)[C@@H](OC(=O)CCC)O[C@H]3OC(C)=O	1.62	3.62	0.303	1.13	0.324	1.49	1.65	3.62	0.854	2.56	1.22	2.56	0.298	0.95
O=S1(=O)N(Cc2ccccc2)[C@@H](Cc2ccccc2)[C@H](O)[C@H](O)[C@H](Cc2ccccc2)N1Cc1ccccc1	3.71	7.34	3.15	6.68	–	–	2.99	7.62	2.89	5.93	3.28	7.09	3.33	7.1
O=C(Nc1ccc(F)cc1F)c1cc(Cl)ccc1O	1.2	4.37	0.232	0.942	–	–	1.29	41	0.397	2.68	1.73	12.6	1.21	8.53
NS(=O)(=O)c1ccc(N2N=C3c4ccccc4CC3C2c2cccs2)cc1 (stereo not given)	16.9	36.8	25.8	55.8	–	–	13.1	32.1	29.7	73.7	19.1	42.6	19.3	48.1
O=C(O)/C=C\C(=O)Nc1ccccn1	–	> 100	–	> 100	–	> 100	–	> 100	–	> 100	–	> 100	–	> 100
C1=C/COCc2cc(ccc2OCCN2CCCC2)Nc2nccc(n2)-c2ccc(o2)COC/1	2.28	6.91	2.21	9.47	–	–	2.23	12	1.52	3.43	0.817	2.29	1.2	3.73
O=C(/C=C/c1ccc(C(F)(F)F)cc1)Nc1ccc(C=C2c3ccccc3C(=O)c3ccccc32)cc1	11.7	51.9	1.49	22.4	0.772	41.7	6.14	> 100	3.87	> 100	14.2	> 100	0.64	2.67
CCc1ccccc1NC(=O)/C=C/c1ccccc1	–	> 100	–	–	–	> 100	–	> 100	–	> 100	–	> 100	–	> 100
COc1ccc(C(=O)c2cc3c(N)c(C(=O)Nc4ccccc4)sc3nc2C)cc1	1.69	> 100	86.3	> 100	0.376	> 100	0.638	> 100	47.1	> 100	0.739	> 100	–	–
C#CCNC(=S)N/N=C(\C)c1ccccn1	1.25	16	0.28	> 100	0.328	3.4	1.18	> 100	0.302	1.49	0.588	> 32	3.1	> 100
NC(=O)[C@@H](CC1CC1)[C@@H](CCC(F)(F)F)C(=O)N[C@H]1N=C(c2ccccc2)c2cccc(F)c2NC1=O	> 100	> 100	19.3	> 100	12	> 100	> 100	> 100	> 100	> 100	48	> 100	66.7	> 100
CC[C@@]1(OC(=O)CN)C(=O)OCc2c1cc1n(c2=O)Cc2c-1nc1cc3c(cc1c2CCl)OCO3	< 0.01	–	0.0724	7.13	< 0.01	> 100	0.0201	> 100	1.02	15.1	< 0.01	5.03	0.16	4.15
O=C1C2=C(C(=O)c3cnccc31)C1C=CC2CC1 (stereo not given)	2.91	6.6	2.62	8.8	3.22	> 21.2	3.67	8.73	1.72	3.17	0.773	2.19	1.8	3.55
[O-][N+]1(CC[N+]2([O-])CCCCC2)CCCCC1	–	> 100	–	> 100	–	> 100	–	> 100	–	–	–	> 100	–	> 100
c1cc(-c2nnc(SSc3ncnc4nc[nH]c34)o2)ccn1	2.52	> 100	0.582	> 100	0.576	> 100	23	> 100	9.34	> 100	0.297	17.3	0.497	> 100
CN1CCN(Cc2ccc(NC(=O)c3cncc(C#Cc4cnc(N)cc4C#N)c3)cc2C(F)(F)F)CC1	3.33	13.1	0.906	4.44	4.21	> 100	3.89	15.4	3.24	15.4	0.601	1.99	1.98	11.7
CN(C)c1ccc(/C=C2\N=C(c3ccccc3)N(c3cc(C(F)(F)F)ccc3Cl)C2=O)cc1	> 100	> 100	> 87.1	> 100	0.0633	–	> 100	> 100	> 100	> 100	> 100	> 100	> 100	> 100
COc1ccc(NC(=O)/C=C(C)/C=C/C=C(C)/C=C/C2=C(C)CCCC2(C)C)cc1	18.2	34.1	–	–	1.98	11.9	14.9	30.7	12.3	26.7	2.93	10.6	5.47	19.1
COC(=O)C12CC(NC(=O)c3csc([C@@H](C[C@H](C(C)C)N(C)C(=O)[C@@H](NC(=O)[C@H]4CCCCN4C)C4CC4)OC(C)=O)n3)(C1)C2	0.0347	> 16.7	–	–	0.00193	> 16.7	0.101	> 16.7	> 16.7	> 16.7	0.0144	> 16.7	0.00243	0.0197

SMILES	GI50 (HOP-62 NSCLC) [µM]	TGI (HOP-62 NSCLC) [µM]	GI50 (HOP-92 NSCLC) [µM]	TGI (HOP-92 NSCLC) [µM]	GI50 (SR leukemia) [µM]	TGI (SR leukemia) [µM]	GI50 (A549 NSCLC) [µM]	TGI (A549 NSCLC) [µM]	GI50 (UACC-257 melanoma) [µM]	TGI (UACC-257 melanoma) [µM]	GI50 (LOX IMVI melanoma) [µM]	TGI (LOX IMVI melanoma) [µM]	GI50 (MDA-MB-435) [µM]	TGI (MDA-MB-435) [µM]
CSc1ncc(Br)c(Sc2nc(N)nc3nc[nH]c23)n1	2.59	> 100	0.456	5.23	–	–	9.77	71.1	3.23	37.9	0.816	17.7	2.5	> 100
CN1CCN(CCOc2ccc(-c3cnc4c(-c5cccc(F)c5)cnn4c3)cc2)CC1	1.72	3.73	1.41	3.2	4.02	> 100	1.9	3.94	2.33	5.71	1.84	3.35	1.71	3.16
COC(=O)C(CCC(=O)CCl)N1C(=O)c2ccccc2C1=O (stereo not given)	–	29	–	12.1	–	11.7	–	35.3	–	22.2	–	4.02	–	22
O=C(Nc1ccc(-n2ccc3c(NC(=O)c4ccccc4)ncnc32)cc1)c1cccc(C(F)(F)F)c1	10.9	24.4	7.51	26	0.0678	> 32.5	0.966	21.1	10.2	32.1	0.218	5.83	2.16	16.3
CCOc1ccc2c(c1)C(=O)c1c-2n(CCCBr)c(=O)c2cc([N+](=O)[O-])ccc12	5.81	> 100	37.1	> 100	0.554	> 100	29	> 100	40.9	98.3	5.38	> 100	30.6	> 100
CC(C)c1nc(N(C)S(C)(=O)=O)nc(-c2ccc(F)cc2)c1/C=C/[C@@H](O)C[C@@H](O)CC(=O)O	> 100	> 100	0.467	6.68	32.7	> 100	> 100	> 100	> 100	> 100	21.2	> 100	79.9	> 100
COc1cccc(CN(C)c2ccc(CO)c(Cl)c2)c1	5.33	> 87.7	6.97	56.9	41.8	> 100	4.09	40.1	0.216	0.679	34.7	> 100	19.7	66.2
CCCn1cnc2c(SCC(=O)O)nc(N)nc21	–	> 100	–	> 100	–	> 100	–	> 100	–	> 100	–	> 100	–	> 100
CCN(Cc1cc(F)ccc1F)c1ccc(CO)c(Cl)c1	1.35	20.5	0.292	6.21	16.1	44.3	1.54	21.6	0.0904	0.308	14.6	29.2	12.8	30
Cc1cc(Cl)ccc1OCC(=O)Nc1nc(N)nc(N)n1	–	> 100	–	> 100	–	> 100	–	> 100	–	> 100	–	> 100	–	> 100
C[Si](C)(c1ccc(C(=O)O)cc1)c1ccc(C(=O)O)cc1	–	> 100	–	> 100	–	> 100	–	> 100	–	> 100	–	> 100	–	> 100
COC(=O)c1cc2c(cc1Cl)SC1=NN(C)S(=O)N1S2(=O)=O (stereo not given)	> 100	> 100	53.7	> 100	> 100	> 100	> 100	> 100	> 100	> 100	> 100	> 100	> 100	> 100
NCCCCC1NC(=O)C(CC(=O)O)NC(=O)CNC(=O)C(CCCN=C(N)N)NC(=O)C(N)CSSCC(C(=O)O)NC(=O)C(CC(=O)O)NC(=O)C2CCCN2C(=O)CNC1=O (stereo not given)	> 100	> 100	–	–	–	–	> 100	> 100	–	–	> 100	> 100	> 100	> 100
CCn1c(-c2cc3c([nH]c4ccccc43)c(-c3cccc(O)c3)n2)n[nH]c1=S	4.71	16	–	–	1.67	6.97	4	18.8	4.11	16.4	2.93	12.7	0.0496	2.94
Cn1cccc1-c1cc(-c2ccccc2)[nH]c(=O)c1C#N	> 100	> 100	–	0.0283	–	–	> 100	> 100	> 100	> 100	> 100	> 100	> 100	> 100
CN(Cc1ccc(C(F)(F)F)cc1)CC(O)C(=O)Nc1ccc(Cl)cc1 (stereo not given)	1.7	3.18	1.08	2.37	–	–	1.69	3.16	1.81	3.38	1.05	2.3	1.52	3
COc1ccc2c(c1OC)-c1c(c3ccc([N+](=O)[O-])cc3c(=O)n1CCCBr)C2=O	21.8	58.5	–	–	4.67	> 100	42.4	> 100	> 100	> 100	12.7	45.5	–	–
CC1CN(S(=O)(=O)c2oc(-c3ccc(Cl)cc3)nc2C#N)CC(C)O1 (stereo not given)	14	42.2	1.78	3.45	–	–	15.5	32.9	2.15	6.34	0.926	2.35	1.89	4.01
